Test results reported in US20170119806A1, “[…] LACTONE DERIVATIVES AND METHODS OF MAKING AND USING THEREOF” (OHIO STATE INNOVATION FOUNDATION, priority 2014, published 2017).
Entries after “also recorded” stand apart in the source; their conditions may differ.

Legend:
topo IIα = topo IIα (Homo sapiens, UniProt P11388); assay: Topoisomerase II assay (DNA cleavage/relaxation); assay type: biochemical; settings: 100 μM test compound
From the text: The formation of linear DNA was detected by separating the SDS-treated reaction products using ethidium bromide gel electrophoresis and quantified by accounting for the relationship between fluorescence and relative band intensity for open circular (OC), linear (LNR), supercoiled (SC), and relaxed (RLX) configurations of DNA.
Topoisomerase II Assay. […] The formation of linear DNA was detected by separating the SDS-treated reaction products using ethidium bromide gel electrophoresis by a modification of a previously described procedure (Hasinoff B B et al. Mol. Pharmacol. 2005, 67, 937-947). In this system, topo II-mediated catalytic conversion of supercoiled pBR322 DNA to the “relaxed” form of plasmic' DNA can also be observed. A 20 μL cleavage assay reaction mixture contained 250 ng topo IIα protein, 160 ng pBR322 plasmid DNA (NEB, Ipswich, Mass.), 1.0 mM ATP in assay buffer (10 mM Tris-HCl (pH 7.5), 50 mM KCl, 50 mM NaCl, 0.1 mM EDTA, 5 mM MgCl2, 2.5% glycerol), and 100 μM of test compounds or DMSO solvent, as indicated. Assay buffer (17 μL) and test compound/DMSO (1 μL) were mixed and allowed to sit at room temperature for 30 min after which 2 μL of topo IIα was added to initiate the reaction. Tubes were incubated at 37° C. for 15 min, and then quenched with 1% (v/v) SDS/10 mM disodium EDTA/200 mM NaCl. The mixture was treated subsequently with 0.77 mg/mL proteinase K (Sigma) at 55° C. for 60 min to digest the protein, and DNA bands were separated by electrophoresis (18 h at 2 V/cm) on an agarose gel (1.3% w/v) containing 0.7 μg/mL ethidium bromide in TAE buffer pH 8.0 (40 mM Tris base, 0.114% (v/v) glacial acetic acid, 2 mM EDTA). The DNA in the gel was imaged by its fluorescence on a Chemi-Doc XRS+ imager (Bio-Rad, Hercules, Calif.). Linear DNA was quantified by accounting for the relationship between fluorescence and relative band intensity for open circular (QC), linear (LNR), supercoiled (SC), and RLX (relaxed) configurations of DNA (Projan S J et al. Plasmid 1983, 9, 182-190), then calculating % of LNR from the total DNA content in each lane.

[1] = system: purified primary NK cells or NKL cells; assay: Real-time RT-PCR of mRNA in NK cells; assay type: cell-based, human; settings: 10 μM PL-C, 12 h
Experimental: (A) Chemical structure of PL-C (phyllanthusmin C, 4), (9) Healthy donor PBMCs (left panel) or enriched NK cells (right panel) were treated with DMSO vehicle control or 10 μM PL-C for 18 h in the presence of […] (10 ng/mL) or IL-15 (100 ng/mL). The cells were harvested and analyzed by intracellular flow cytometry to determine the frequency of IFN-γ^+ cells in CD56^+CD3^− NK cells (n=8 for PBMC and n=5 for enriched NK). (C) Highly purified (≧99.5%) human primary NK cells were treated with 10 μM PL-C for 18 h to determine the levels of IFN-γ secretion by ELISA. IFN-γ secretion from treatment with PL-C alone (left panel) or in combination with IL-12 (10 ng/mL, middle panel) or IL-15 (100 ng/mL, right panel) is shown. (D) Cells were treated as described in (C) and harvested at 12 h, IFNG mRNA expression was assessed by real-time RT-PCR, and the relative IFNG mRNA expression of each treatment was normalized to untreated vehicle control in the same donor. Data are shown as mean±SEM (n=6 in each treatment; error bars represent SEM). *p<0.05, **p<0.01, which denote statistical comparison between the two marked treatment groups (B-D). (E) Highly purified (≧99,5%) primary human NK cells were treated with 10 μM. PL-C in combination with various concentrations of IL-12 (10, 1, and 0.1 ng/mL) or IL-15 (100, 10, and 1 ng/mL) for 24 h to determine the levels of IFN-γ secretion. Representative data from one of three donors with the similar data are shown. *p<0.05, **p<0.01, which denote statistical comparison between the two marked treatment groups and are calculated from data of all tested donors. Error bars represent SD. […]
(A) Human […] were treated with DMSO vehicle control or 10 μM PL-C for 18 hours in the presence of IL-12 (10 ng/mL) or IL-15 (100 ng/mL), as described in FIG. 37C. […] (B) Purified primary NK cells were treated with IL-12 (10 ng/mL) or IL-15 (100 ng/mL) with or without 10 μM PL-C for 8 hours and were sequentially co-cultured with […] labeled ARH-77 cells at various effector/target cell ratios for additional 4 hours. ^51Cr release was measured by a TopCount counter. […]

Sequence of topo IIα (P11388 whole entry): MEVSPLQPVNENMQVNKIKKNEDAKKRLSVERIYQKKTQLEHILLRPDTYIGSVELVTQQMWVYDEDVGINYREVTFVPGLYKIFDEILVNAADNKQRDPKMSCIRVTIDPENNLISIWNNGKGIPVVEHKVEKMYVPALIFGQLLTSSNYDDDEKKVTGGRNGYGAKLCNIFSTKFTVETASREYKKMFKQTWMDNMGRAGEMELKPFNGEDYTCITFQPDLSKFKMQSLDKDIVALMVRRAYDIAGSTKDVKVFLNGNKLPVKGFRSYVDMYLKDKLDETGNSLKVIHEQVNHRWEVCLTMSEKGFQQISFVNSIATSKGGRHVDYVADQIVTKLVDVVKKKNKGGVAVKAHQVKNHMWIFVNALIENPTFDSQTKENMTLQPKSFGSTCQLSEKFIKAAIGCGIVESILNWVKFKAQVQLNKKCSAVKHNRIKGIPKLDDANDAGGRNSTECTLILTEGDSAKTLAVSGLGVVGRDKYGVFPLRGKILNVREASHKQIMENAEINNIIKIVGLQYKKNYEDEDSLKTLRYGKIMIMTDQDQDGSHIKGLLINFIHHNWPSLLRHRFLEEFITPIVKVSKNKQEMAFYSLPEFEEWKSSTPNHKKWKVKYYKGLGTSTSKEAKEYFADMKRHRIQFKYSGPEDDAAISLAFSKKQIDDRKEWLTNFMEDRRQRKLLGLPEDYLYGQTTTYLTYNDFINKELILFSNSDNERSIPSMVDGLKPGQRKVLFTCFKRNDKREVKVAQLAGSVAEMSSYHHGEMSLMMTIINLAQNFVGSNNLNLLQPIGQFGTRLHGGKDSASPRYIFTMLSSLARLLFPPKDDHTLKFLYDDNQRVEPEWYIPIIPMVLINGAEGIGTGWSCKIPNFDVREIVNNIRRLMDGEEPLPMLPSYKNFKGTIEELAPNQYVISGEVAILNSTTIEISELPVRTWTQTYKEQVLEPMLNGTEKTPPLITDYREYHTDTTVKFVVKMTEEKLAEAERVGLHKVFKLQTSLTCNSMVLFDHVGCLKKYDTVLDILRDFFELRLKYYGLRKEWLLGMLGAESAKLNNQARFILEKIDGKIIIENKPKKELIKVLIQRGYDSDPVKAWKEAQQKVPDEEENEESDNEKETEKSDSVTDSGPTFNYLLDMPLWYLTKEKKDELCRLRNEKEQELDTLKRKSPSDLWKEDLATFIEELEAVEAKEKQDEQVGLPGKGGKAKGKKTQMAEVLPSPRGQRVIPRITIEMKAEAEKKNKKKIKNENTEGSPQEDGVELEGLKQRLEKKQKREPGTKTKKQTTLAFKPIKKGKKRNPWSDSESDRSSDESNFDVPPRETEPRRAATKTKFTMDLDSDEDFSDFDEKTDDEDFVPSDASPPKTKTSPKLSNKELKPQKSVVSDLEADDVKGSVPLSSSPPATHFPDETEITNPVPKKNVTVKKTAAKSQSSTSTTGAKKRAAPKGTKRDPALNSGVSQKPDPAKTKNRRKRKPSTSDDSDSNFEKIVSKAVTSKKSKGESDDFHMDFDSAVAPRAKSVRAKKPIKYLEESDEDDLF

COc1cc2c(OC3OCC(O)C(O)C3O)c3c(c(-c4ccc5c(c4)OCO5)c2cc1OC)C(=O)OC3 (stereo not shown) [Compound 4, Phyllanthusmin C]
topo IIα inhibition (in words) (topo IIα): not topo Ha inhibitors; also recorded: not topo IIα inhibitors
IFNG mRNA expression in NK cells ([1]; alone or with IL-12 or IL-15): induced IFN-γ gene (IFNG) expression at the transcriptional level
mRNA expression of IL-12R and IL-15R chains ([1]; cotreated with IL-12): downregulated mRNA expression of IL-12Rβ1, IL-12Rβ2, and IL-15Rα
expression of cytotoxicity-associated genes (granzyme A, granzyme B, perforin, Fas ligand) ([1]; with IL-12 or IL-15): unaffected
